Data reported in a compilation of properties of binary mixtures (doi:10.1021/acs.jpcb.5b11900).

Test: xn = mol fraction of the nth substance listed
Conditions: 101 kPa

CC[N+](CC)(CC)CC.O=[N+]([O-])[O-] + CC[NH3+].O=[N+]([O-])[O-]
Conditions	electrical conductivity [S/m]	viscosity [mPa·s]
293.15 K, x1 = 0.0501	1.56	50.7
293.15 K, x1 = 0.1	1.27	60.1
293.15 K, x1 = 0.2001	0.797	91.6
293.15 K, x1 = 0.2567	0.623	122
293.15 K, x1 = 0.2995	0.392	144
293.15 K, x1 = 0.35	0.359	211
298.15 K, x1 = 0.0501	1.83	42.2
298.15 K, x1 = 0.1	1.5	49.6
298.15 K, x1 = 0.15	1.21	60.4
298.15 K, x1 = 0.2001	0.96	74
298.15 K, x1 = 0.2567	0.762	96.9
298.15 K, x1 = 0.2995	–	114
298.15 K, x1 = 0.35	0.462	167
303.15 K, x1 = 0.1	1.76	41.4
303.15 K, x1 = 0.2001	1.14	60.7
303.15 K, x1 = 0.2567	0.912	78.3
303.15 K, x1 = 0.2995	0.594	91.3
308.15 K, x1 = 0.0501	2.44	30.3
308.15 K, x1 = 0.1	2.03	35.5
308.15 K, x1 = 0.15	1.65	41.9
308.15 K, x1 = 0.2567	1.08	64.1
308.15 K, x1 = 0.2995	0.715	74.2
308.15 K, x1 = 0.35	0.671	104
313.15 K, x1 = 0.0501	2.78	26
313.15 K, x1 = 0.15	1.91	35.6
313.15 K, x1 = 0.2001	1.56	42.4
313.15 K, x1 = 0.2567	1.26	53.4
313.15 K, x1 = 0.2995	0.848	61.3
313.15 K, x1 = 0.35	0.804	85.4
318.15 K, x1 = 0.0501	3.14	22.5
318.15 K, x1 = 0.1	2.65	26.1
318.15 K, x1 = 0.15	2.17	30.4
318.15 K, x1 = 0.2001	1.79	35.9
318.15 K, x1 = 0.2567	1.46	44.7
318.15 K, x1 = 0.35	0.948	69.4
323.15 K, x1 = 0.0501	3.52	19.7
323.15 K, x1 = 0.1	2.99	22.7
323.15 K, x1 = 0.2001	2.04	30.7
323.15 K, x1 = 0.2567	1.68	37.9
323.15 K, x1 = 0.2995	1.22	42.8
323.15 K, x1 = 0.35	1.11	57.6
328.15 K, x1 = 0.0501	–	17.3
328.15 K, x1 = 0.1	–	19.9
328.15 K, x1 = 0.15	–	22.8
328.15 K, x1 = 0.2995	–	36.4
333.15 K, x1 = 0.0501	–	15.3
333.15 K, x1 = 0.1	–	17.5
333.15 K, x1 = 0.2001	–	23.2
333.15 K, x1 = 0.2567	–	28.1
333.15 K, x1 = 0.2995	–	31.3
333.15 K, x1 = 0.35	–	41.5
338.15 K, x1 = 0.0501	–	13.7
338.15 K, x1 = 0.1	–	15.5
338.15 K, x1 = 0.15	–	17.7
338.15 K, x1 = 0.2001	–	20.3
338.15 K, x1 = 0.2567	–	24.3
338.15 K, x1 = 0.2995	–	27
338.15 K, x1 = 0.35	–	35.1
343.15 K, x1 = 0.0501	–	12.3
343.15 K, x1 = 0.1	–	13.6
343.15 K, x1 = 0.2001	–	18
343.15 K, x1 = 0.2567	–	21.4
343.15 K, x1 = 0.2995	–	23.6
343.15 K, x1 = 0.35	–	30.2
348.15 K, x1 = 0.0501	–	11.1
348.15 K, x1 = 0.1	–	12.2
348.15 K, x1 = 0.15	–	14.1
348.15 K, x1 = 0.2567	–	18.9
348.15 K, x1 = 0.2995	–	20.7
353.15 K, x1 = 0.0501	–	10
353.15 K, x1 = 0.15	–	12.7
353.15 K, x1 = 0.2001	–	14.4
353.15 K, x1 = 0.2567	–	16.9
353.15 K, x1 = 0.2995	–	18.4

CC[NH2+]CC.O=[N+]([O-])[O-] + CC[NH3+].O=[N+]([O-])[O-]
Conditions	electrical conductivity [S/m]	viscosity [mPa·s]
293.15 K, x1 = 0.0499	1.8	44.4
293.15 K, x1 = 0.1499	1.69	45.4
293.15 K, x1 = 0.1999	1.55	49.7
293.15 K, x1 = 0.2501	1.59	46
293.15 K, x1 = 0.2998	1.55	45.6
298.15 K, x1 = 0.0499	2.1	37.2
298.15 K, x1 = 0.0998	2.02	36.2
298.15 K, x1 = 0.1499	1.99	37.9
298.15 K, x1 = 0.1999	1.83	41.3
298.15 K, x1 = 0.2998	1.87	37.9
298.15 K, x1 = 0.3501	1.72	41.2
303.15 K, x1 = 0.0499	2.43	31.5
303.15 K, x1 = 0.0998	2.34	30.6
303.15 K, x1 = 0.1499	2.31	31.9
303.15 K, x1 = 0.1999	2.12	34.7
303.15 K, x1 = 0.2501	2.18	32.2
303.15 K, x1 = 0.2998	2.18	31.9
303.15 K, x1 = 0.3501	2	34.5
308.15 K, x1 = 0.0998	2.69	26.2
308.15 K, x1 = 0.1499	2.64	27.3
308.15 K, x1 = 0.1999	2.44	29.4
308.15 K, x1 = 0.2501	2.5	27.4
308.15 K, x1 = 0.2998	2.5	27.2
308.15 K, x1 = 0.3501	2.3	29.2
313.15 K, x1 = 0.0499	3.16	23.2
313.15 K, x1 = 0.0998	3.06	22.4
313.15 K, x1 = 0.1499	3.01	23.4
313.15 K, x1 = 0.2501	2.84	23.4
313.15 K, x1 = 0.2998	2.84	23.3
318.15 K, x1 = 0.0499	3.55	20.2
318.15 K, x1 = 0.1999	3.15	21.8
318.15 K, x1 = 0.2501	3.2	20.4
318.15 K, x1 = 0.3501	2.97	21.6
323.15 K, x1 = 0.0499	3.97	17.8
323.15 K, x1 = 0.0998	3.85	17.3
323.15 K, x1 = 0.2501	3.59	17.8
323.15 K, x1 = 0.2998	3.59	17.8
323.15 K, x1 = 0.3501	3.34	18.8
328.15 K, x1 = 0.0499	–	15.7
328.15 K, x1 = 0.1499	–	15.8
328.15 K, x1 = 0.1999	–	16.7
328.15 K, x1 = 0.2501	–	15.7
328.15 K, x1 = 0.3501	–	16.5
333.15 K, x1 = 0.0499	–	13.9
333.15 K, x1 = 0.0998	–	13.6
333.15 K, x1 = 0.1499	–	14
333.15 K, x1 = 0.1999	–	14.7
333.15 K, x1 = 0.2501	–	13.9
333.15 K, x1 = 0.2998	–	13.9
333.15 K, x1 = 0.3501	–	14.6
338.15 K, x1 = 0.0499	–	12.5
338.15 K, x1 = 0.0998	–	12.1
338.15 K, x1 = 0.1499	–	12.5
338.15 K, x1 = 0.1999	–	13.1
338.15 K, x1 = 0.2501	–	12.5
338.15 K, x1 = 0.3501	–	13
343.15 K, x1 = 0.0998	–	10.8
343.15 K, x1 = 0.1999	–	11.9
343.15 K, x1 = 0.2501	–	11.2
343.15 K, x1 = 0.2998	–	10.9
343.15 K, x1 = 0.3501	–	11.7
348.15 K, x1 = 0.0998	–	9.8
348.15 K, x1 = 0.1499	–	10.1
348.15 K, x1 = 0.1999	–	10.7
348.15 K, x1 = 0.2501	–	10.1
348.15 K, x1 = 0.2998	–	9.6
348.15 K, x1 = 0.3501	–	10.5
353.15 K, x1 = 0.0499	–	9.2
353.15 K, x1 = 0.2501	–	9.14
353.15 K, x1 = 0.2998	–	8.69

CCC[NH3+].O=[N+]([O-])[O-] + CCCC[NH3+].O=[N+]([O-])[O-]
x1 = 0.5
Conditions	electrical conductivity [S/m]	viscosity [mPa·s]
298.15 K	0.606	80.6
303.15 K	0.729	65.7
308.15 K	0.866	54.2
318.15 K	1.18	38.3
333.15 K	–	24.4
338.15 K	–	21.3
348.15 K	–	16.7
353.15 K	–	14.9
